This assay addresses T1, Mtb Pck (Mycobacterium tuberculosis, UniProt P9WIH3).
T1 construct: gene pckG
In words: biochemical.

T1 sequence (P9WIH3 whole entry): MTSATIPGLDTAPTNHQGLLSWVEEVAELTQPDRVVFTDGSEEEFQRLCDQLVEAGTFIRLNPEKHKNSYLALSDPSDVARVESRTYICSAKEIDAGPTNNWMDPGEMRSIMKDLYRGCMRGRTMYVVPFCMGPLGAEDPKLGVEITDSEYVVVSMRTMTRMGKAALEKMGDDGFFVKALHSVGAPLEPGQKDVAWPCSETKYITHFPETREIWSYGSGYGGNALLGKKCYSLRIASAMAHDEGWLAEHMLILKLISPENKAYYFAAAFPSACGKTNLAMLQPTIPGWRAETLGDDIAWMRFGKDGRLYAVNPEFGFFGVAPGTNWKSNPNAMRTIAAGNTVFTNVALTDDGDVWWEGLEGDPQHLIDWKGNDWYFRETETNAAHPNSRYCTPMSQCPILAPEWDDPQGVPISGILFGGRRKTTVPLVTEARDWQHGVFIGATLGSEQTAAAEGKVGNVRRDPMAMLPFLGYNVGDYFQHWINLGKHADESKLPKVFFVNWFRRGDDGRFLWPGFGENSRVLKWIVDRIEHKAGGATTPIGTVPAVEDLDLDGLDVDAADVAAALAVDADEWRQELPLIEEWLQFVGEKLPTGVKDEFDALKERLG

With `Nc1nc2c(ncn2[C@@H]2O[C@H](COP(=O)(O)OP(=O)(O)OP(=O)(O)O)[C@@H](O)[C@H]2O)c(=O)[nH]1` [GTP], the equilibrium dissociation constant (Kd) (commonly the free concentration of one partner at which half of the binding sites on the other are occupied at equilibrium, for simple one-to-one binding) was found to be 7.3 µM. This counts as single-digit micromolar.

The values above are taken from article PMC4370629, “Structural and Functional Studies of Phosphoenolpyruvate Carboxykinase from Mycobacterium tuberculosis” (PLoS ONE, 2015).
